Reference: patent US11174248B2, “Indazolyl-spiro[2.3]hexane-carbonitrile derivatives as LRRK2 inhibitors, pharmaceutical compositions, and uses thereof” (Merck Sharp & Dohme Corp., priority 2017, dated 2021)

Biological target: GST-tagged truncated human mutant G2019S LRRK2 (Homo sapiens (Human), UniProt Q5S007, G2019S)
Test: LRRK2 Km ATP LanthaScreen Assay
Assay type: biochemical
Settings: 134 μM ATP (Km ATP); fluorescein-labeled LRRKtide substrate; mean IC50 values
Method: Unless otherwise noted, all LRRK2 IC50 data presented in tables refers to the LRRK2 Km ATP LanthaScreen™ Assay that is described in the Biological Assay section.
Biological Assay: LRRK2 Km ATP LanthaScreen™ Assay
The LRRK2 kinase activity reported herein as IC50 values was determined with LanthaScreen™ technology from Life Technologies Corporation (Carlsbad, Calif.) using GST-tagged truncated human mutant G2019S LRRK2 in the presence of the fluorescein-labeled peptide substrate LRRKtide, also from Life Technologies. The data presented for the Km ATP LanthaScreen™ Assay represents mean IC50 values based on several test results and may have reasonable deviations depending on the specific conditions and reagents used. Assays were performed in the presence of 134 μM ATP (Km ATP). Upon completion, the assay was stopped and phosphorylated substrate detected with a terbium (Tb)-labeled anti-pERM antibody (cat. no. PV4898). The compound dose response was prepared by diluting a 10 mM stock of compound to a maximum concentration of 9.99 μM in 100% dimethylsulfoxide followed by custom fold serial dilution in dimethylsulfoxide nine times. Twenty nanoliters of each dilution was spotted via a Labcyte Echo onto a 384-well black-sided plate (Corning 3575) followed by 15 μl of a 1.25 nM enzyme solution in 1× assay buffer (50 mM Tris pH 8.5, 10 mM MgCl2, 0.01% Brij-35, 1 mM EGTA, 2 mM dithiothreitol, 0.05 mM sodium orthovanadate) Following a 15-minute incubation at room temperature, the kinase reaction was started with the addition of 5 μl of 400 nM fluorescein-labeled LRRKtide peptide substrate and 134 μM ATP solution in 1× assay buffer. The reaction was allowed to progress at ambient temperature for 90 minutes. The reaction was then stopped by the addition of 20 μl of TR-FRET Dilution Buffer (Life Technologies, Carlsbad, Calif.) containing 2 nM Tb-labeled anti-phospho LRRKtide antibody and 10 mM EDTA (Life Technologies, Carlsbad, Calif.). After an incubation of 1 hour at room temperature, the plate was read on an EnVision multimode plate reader (Perkin Elmer, Waltham, Mass.) with an excitation wavelength of 337 nm (Laser) and a reading emission at both 520 and 495 nm. Compound IC50s were interpolated from nonlinear regression best fits of the log of the final compound concentration, plotted as a function of the 520/495-nm emission ratio using Activity base. Abase uses a 4 parameter (4P) logistic fit based on the Levenberg-Marquardt algorithm.

Chain of GST-tagged truncated human mutant G2019S LRRK2 (Q5S007 970-2527 G2019S): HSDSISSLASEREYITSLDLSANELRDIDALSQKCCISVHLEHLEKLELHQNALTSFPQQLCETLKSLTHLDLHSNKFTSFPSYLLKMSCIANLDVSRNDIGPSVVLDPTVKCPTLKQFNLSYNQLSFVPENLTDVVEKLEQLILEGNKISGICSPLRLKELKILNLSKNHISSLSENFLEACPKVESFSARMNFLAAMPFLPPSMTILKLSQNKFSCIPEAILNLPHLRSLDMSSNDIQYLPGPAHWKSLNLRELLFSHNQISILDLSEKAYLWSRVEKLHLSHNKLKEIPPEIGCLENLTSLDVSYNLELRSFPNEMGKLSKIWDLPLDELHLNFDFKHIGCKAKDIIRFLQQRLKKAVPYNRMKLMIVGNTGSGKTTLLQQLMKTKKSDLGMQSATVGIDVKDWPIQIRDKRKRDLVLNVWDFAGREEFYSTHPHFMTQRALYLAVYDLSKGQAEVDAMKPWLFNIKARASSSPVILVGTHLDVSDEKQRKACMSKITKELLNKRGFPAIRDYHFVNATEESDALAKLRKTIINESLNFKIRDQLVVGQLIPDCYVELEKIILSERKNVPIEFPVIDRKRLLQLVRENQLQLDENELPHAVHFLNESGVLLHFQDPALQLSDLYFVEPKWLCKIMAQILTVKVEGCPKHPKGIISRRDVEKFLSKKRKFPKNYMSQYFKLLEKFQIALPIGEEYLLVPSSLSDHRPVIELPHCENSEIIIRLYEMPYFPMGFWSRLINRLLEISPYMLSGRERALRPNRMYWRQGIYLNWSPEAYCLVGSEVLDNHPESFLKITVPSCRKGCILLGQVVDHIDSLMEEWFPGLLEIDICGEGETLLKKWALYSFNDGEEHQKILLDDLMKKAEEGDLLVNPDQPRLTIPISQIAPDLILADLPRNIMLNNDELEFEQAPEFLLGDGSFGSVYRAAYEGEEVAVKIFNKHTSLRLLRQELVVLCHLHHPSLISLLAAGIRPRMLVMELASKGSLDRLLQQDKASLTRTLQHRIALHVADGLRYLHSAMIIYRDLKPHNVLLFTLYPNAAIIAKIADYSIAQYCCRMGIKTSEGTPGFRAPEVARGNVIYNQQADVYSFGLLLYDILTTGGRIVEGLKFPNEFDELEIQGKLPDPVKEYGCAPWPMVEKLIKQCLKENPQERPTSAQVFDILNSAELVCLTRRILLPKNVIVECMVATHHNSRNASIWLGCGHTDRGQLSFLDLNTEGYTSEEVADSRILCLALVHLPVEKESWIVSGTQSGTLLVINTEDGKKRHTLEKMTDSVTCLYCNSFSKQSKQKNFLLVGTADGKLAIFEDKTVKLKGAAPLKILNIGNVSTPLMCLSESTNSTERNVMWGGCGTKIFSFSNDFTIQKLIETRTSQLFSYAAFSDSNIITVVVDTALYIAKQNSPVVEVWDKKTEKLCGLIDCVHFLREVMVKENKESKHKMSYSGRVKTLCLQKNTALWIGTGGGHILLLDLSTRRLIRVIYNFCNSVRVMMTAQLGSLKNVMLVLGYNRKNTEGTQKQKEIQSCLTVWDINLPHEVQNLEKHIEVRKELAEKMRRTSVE

`CC1C(C(C)(C)O)CCN1c1cc(-n2ncc3ccc(C4(C#N)CC5(CC5)C4)cc32)ncn1` (single isomer, unassigned) [Example 38, 5-(1-(6-(3-(2-hydroxypropan-2-yl)-2-methylpyrrolidin-1-yl)pyrimidin-4-yl)-1H-indazol-6-yl)spiro[2.3]hexane-5-carbonitrile] was tested, and the IC50 was 59 nM.
